Test results published in patent publication US5889018A, “Heterocyclic compounds, pharmaceutical compositions comprising them and process for the preparation thereof” (Egis Gyogyszergyar RT., priority 1994, dated 1999).
Where two headings read alike, the source gives them in different places.

Tests used:
in vivo = details: mouse, NMRI mice, 7 days observation
Method: White mice belonging to the NMRI strain (body weight 20 to 25 g. both male and female) were used, 6 animals for each dose. The test compound was administered orally in a volume of 20 ml/kg, the maximum oral and intraperitoneal doses were 1000 mg/kg and 300 mg/kg, respectively. […] The mice were kept under usual laboratory conditions.

Male Wistar rats = assay: Vogel Test (Lick Conflict Test), anxiolytic activity; format: in vivo; details: Rattus norvegicus, po, 1 h, p.o., one hour before testing, read-out: Minimum effective dose (mg/kg, p.o.)
Method: 1. Vogel Test (Lick Conflict Test)
Male Wistar rats of 160 to 180 g body weight were kept free of food and drinking water for 24 and 48 hours, respectively. The test and carrier substances (0.4% methyl-cellulose) were administered orally one hour before testing. Groups consisting of 8 animals were used. The rats within the experimental chamber were provided with drinking water through an inserted tube. After the animals' each twenty lapping for water the device emitted a 1.4 mA intensity electric shock through the drinking tube. During 5 minutes the shocks tolerated by the animals in order to quench their thirst were counted. The effect of treatment was expressed as the % increase of the tolerated shocks. The minimum effective dose (MED) was determined for each test compound (Vogel, J. R., Beer, B., Clody, D. E.: Psycho-pharmacologia (Berl.) 21, 1 /1971/).

[1] = system: Male Wistar rats (Charles River); assay: Hole-Board Test, head-dipping activity; format: in vivo; details: Rattus norvegicus, po, 1 h, p.o., one hour before testing, from head-dipping activity, read-out: Minimum effective dose (mg/kg, p.o.)
Method: The experiment was carried out according to a slightly modified method of File [File, S. E., Wardill, A. G., Psychopharmacologia, 44, 53-59, (1975)]. Male Wistar rats (Charles River) weighing 160-200 g were fasted for 24 hours prior to the experiment. They were treated orally in a volume of 5 ml/kg one hour before testing, a treated group consisted of 12 animals. The test compounds were suspended in 0,4 methylcellulose solution, the control group was treated with methylcellulose. All procedures were carried out in a quiet, air-conditioned laboratory between 9:00 and 13:00 hours at ambient temperature (23°+2° C.). Locomotor and head-dipping activity were measured using automated test chambers (Digiscan, OMNITECH Electronics Inc., Columbus, Ohio). The floor of each box contained 4 equally spaced holes (3.5 cm in diameter) through which rat could pop its head. Interruptions of infrared beams (16 of them is located 1.0 cm below and an other […] above the floor level) were automatically recorded by digiscan analyser and then transmitted to a computer and analysed by OASIS softwer. The hole-board testing involved placing a rat in the center of the floor and allowing it to explore for 5 minutes.
At the end of each trial any boluses were removed and the box was thoroughly wiped. Minimum effective doses of the compounds were calculated from the head-dipping activity values.

[2] = system: Male rats belonging to the Sprague Dawley strain; assay: Elevated Plus Maze Test on Rat, anxiolytic activity; format: in vivo; details: for minimal effective dose: Rattus norvegicus, po, 1 h, p.o., 60 minutes pretreatment, significant increase of time spent on the open arms, Sprague Dawley rats, read-out: Minimum effective dose (mg/kg, p.o.)
Method: 1.2 Elevated Plus Maze Test on Rat
The test was carried out with the aid of a wooden plus-shaped maze elevated to a height of 50 cm. Two arms (100 cm long and 15 cm wide)--opposite to one another--were enclosed up to a height of 40 cm along their longer sides and at the end. The other two arms were without walls (open arms). The central 15×15 cm part was open. Male rats belonging to the Sprague Dawley strain and weighing 220 to 260 g were used as test animals. After pretreatment lasting 60 minutes the animals were placed into the central part of the maze. During the 5 minutes observation period the following parameters were recorded: […]
time spent on the open arms time spent on the closed arms number of open arm entries number of closed arm entries.
The drug effect was expressed as percent increase of the time spent on the open arms and number of open arm entries. The minimum effective dose which caused a significant increase of the time spent on the open arms was calculated for every substance [Pelow, S., Chopin, P., File, S. E., Briley, M.: J. Neurocsi. Methods 14, 149-167 (1985)].

[3] = ip, read-out: LD50 (mg/kg, i.p.)
[4] = po, read-out: LD50 (mg/kg, p.o.)

Row | Structure (SMILES) | LD50 at 168 h (in vivo; [3]) | LD50 at 168 h (in vivo; [4]) | minimal effective dose (Male Wistar rats) | minimal effective dose [1] | minimal effective dose [2] | times more effective than diazepam ([2]; elevated plus maze, relative to diazepam)
1 | COc1cc2cc(C)nc(C=Cc3ccc(Cl)cc3)c2cc1OC [Example 2, 1-(4-chlorostyryl)-3-methyl-6,7-dimethoxyisoquinoline] | > 300 mg/kg | > 1000 mg/kg | – | – | – | –
2 | COc1ccc(C=Cc2nccc3cc(OC)c(OC)cc23)cc1OC [Example 7, 1-(3,4-dimethoxystyryl)-6,7-dimethoxyisoquinoline] | > 300 mg/kg | 1000 mg/kg | – | – | – | –
3 | COc1cc2cc(C)nc(C=Cc3ccc([N+](=O)[O-])cc3)c2cc1OC [Example 4, 3-methyl-6,7-dimethoxy-1-(4-nitrostyryl)-isoquinoline] | > 300 mg/kg | > 1000 mg/kg | 0.01 mg/kg | – | – | –
4 | COc1ccc(C=Cc2nccc3cc4c(cc23)OCO4)cc1OC [Example 20, 1-(3,4-dimethoxystyryl)-6,7-methylenedioxyisoquinoline] | > 300 mg/kg | > 1000 mg/kg | – | – | – | –
5 | Clc1ccc(C=Cc2nccc3ccccc23)c(Cl)c1 [Example 8, 1-(2,4-dichlorostyryl)-isoquinoline] | > 300 mg/kg | > 1000 mg/kg | – | – | – | –
6 | CN1C(=O)CN=C(c2ccccc2)c2cc(Cl)ccc21 [Diazepam, reference compound] | – | – | 0.1 mg/kg | 0.1 mg/kg | 2.5 mg/kg | –
7 | COc1cc2ccnc(C=Cc3ccc(F)cc3)c2cc1OC [Example 5, 1-(4-fluorostyryl)-6,7-dimethoxyisoquinoline] | > 300 mg/kg | > 1000 mg/kg | 0.0003 mg/kg | – | – | –
8 | COc1cc2ccnc(C=Cc3ccc(C(F)(F)F)cc3)c2cc1OC [Example 6, 6,7-dimethoxy-1-[4-(trifluoromethyl)-styryl]-isoquinoline] | > 300 mg/kg | > 1000 mg/kg | 0.01 mg/kg | 0.0001 mg/kg | – | –
9 | Cc1cc2cc3c(cc2c(C=Cc2cccc(Br)c2)n1)OCO3 [Example 19, 1-(3-bromostyryl)-3-methyl-6,7-methylenedioxyisoquinoline] | > 300 mg/kg | > 1000 mg/kg | – | – | – | –
10 | COc1cc2cc(C)nc(C=Cc3ccc(C#N)cc3)c2c(OC)c1OC [Example 9, 1-(4-cyanostyryl)-3-methyl-6,7,8-trimethoxyisoquinoline] | > 300 mg/kg | > 1000 mg/kg | 0.01 mg/kg | – | – | –
11 | COc1ccc(C=Cc2nccc3cc(OC)c(OC)cc23)cc1 [Example 21, 6,7-dimethoxy-1-(4-methoxystyryl)-isoquinoline] | > 300 mg/kg | > 1000 mg/kg | 0.03 mg/kg | 0.01 mg/kg | – | –
12 | FC(F)(F)c1ccc(C=Cc2nccc3cc4c(cc23)OCO4)cc1 [Example 3, 6,7-methylenedioxy-1-[(4-trifluoromethyl)-styryl]-isoquinoline] | > 300 mg/kg | > 1000 mg/kg | 1e-05 mg/kg | 0.0001 mg/kg | 0.1 mg/kg | 25 times
